Test results as given in ChEMBL document CHEMBL4118195, “Synthesis and profiling of benzylmorpholine 1,2,4,5-tetraoxane analogue N205: Towards tetraoxane scaffolds with potential for single dose cure of malaria” (Bioorg Med Chem, 2018).

Columns and labels:
[1] = Drug metabolism in mouse liver microsomes assessed as metabolite M+32 (IV) formation at 5 uM after 60 mins by UPLC-MS analysis; type: ADME, microsome; conditions: 1 h
Cytochrome P450 3A4 = Cytochrome P450 3A4 (Homo sapiens, UniProt P08684); assay: Inhibition of CYP3A4 in human liver microsomes assessed as testosterone 6beta-hydroxylation after 4 to 40 mins in presence of NADPH by LCMS analysis; type: ADME
Chain of Cytochrome P450 3A4 (P08684 whole entry): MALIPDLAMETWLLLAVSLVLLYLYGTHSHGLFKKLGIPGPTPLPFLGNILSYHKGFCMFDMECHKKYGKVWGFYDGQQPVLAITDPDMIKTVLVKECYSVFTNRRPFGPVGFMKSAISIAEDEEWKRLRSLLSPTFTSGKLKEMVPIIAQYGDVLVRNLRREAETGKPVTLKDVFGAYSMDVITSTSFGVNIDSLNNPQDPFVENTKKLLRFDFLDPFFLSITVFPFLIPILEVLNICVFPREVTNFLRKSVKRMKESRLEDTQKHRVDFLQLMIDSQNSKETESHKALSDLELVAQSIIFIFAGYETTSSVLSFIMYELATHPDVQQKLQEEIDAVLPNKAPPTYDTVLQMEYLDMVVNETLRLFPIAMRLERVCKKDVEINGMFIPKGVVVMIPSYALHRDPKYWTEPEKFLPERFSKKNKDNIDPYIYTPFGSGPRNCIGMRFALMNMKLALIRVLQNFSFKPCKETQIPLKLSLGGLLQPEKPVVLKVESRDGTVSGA

[2] = Drug metabolism in human liver microsomes assessed as mono-oxygenation and dehydrogenation metabolite formation at 5 uM after 60 mins by UPLC-MS analysis; type: ADME, microsome; conditions: 1 h
[3] = Drug metabolism in rat liver microsomes assessed as deaminated morpholine acid metabolite formation at 5 uM after 60 mins by UPLC-MS analysis; type: ADME, microsome; conditions: 1 h
Cytochrome P450 1A2 = target: T1, Cytochrome P450 1A2 (Homo sapiens, UniProt P05177); assay: Inhibition of CYP1A2 in human liver microsomes assessed as phenacetin O-deethylation after 4 to 40 mins in presence of NADPH by LCMS analysis; type: ADME
T1 sequence (P05177 whole entry): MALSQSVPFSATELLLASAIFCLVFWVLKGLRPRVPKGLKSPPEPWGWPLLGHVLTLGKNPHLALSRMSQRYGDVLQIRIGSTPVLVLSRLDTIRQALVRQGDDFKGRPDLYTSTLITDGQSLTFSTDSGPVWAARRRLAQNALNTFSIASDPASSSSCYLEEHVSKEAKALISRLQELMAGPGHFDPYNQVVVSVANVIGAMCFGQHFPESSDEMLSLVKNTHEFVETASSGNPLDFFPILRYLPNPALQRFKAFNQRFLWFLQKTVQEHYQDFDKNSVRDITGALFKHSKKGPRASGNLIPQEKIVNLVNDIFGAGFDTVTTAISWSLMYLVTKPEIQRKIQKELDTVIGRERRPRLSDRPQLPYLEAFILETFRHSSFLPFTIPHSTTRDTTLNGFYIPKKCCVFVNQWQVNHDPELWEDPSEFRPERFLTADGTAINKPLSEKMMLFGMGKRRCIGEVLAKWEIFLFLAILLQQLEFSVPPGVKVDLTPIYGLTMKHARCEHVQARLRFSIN

[4] = Drug metabolism in rat liver microsomes assessed as metabolite M+32 (IV) formation at 5 uM after 60 mins by UPLC-MS analysis; type: ADME, microsome; conditions: 1 h
Plasmodium falciparum = assay: Antimalarial activity against Plasmodium falciparum 3D7 infected in human erythrocytes after 48 hrs by SYBR Green I dye-based fluorescence assay; type: functional, organism-based; conditions: 3D7, 48 h
[5] = Drug metabolism in rat liver microsomes assessed as metabolite 4-(4-(morpholinomethyl)phenyl)cyclohexanol formation at 5 uM after 60 mins by UPLC-MS analysis; type: ADME, microsome; conditions: 1 h
Mus musculus [6] = assay: Dose normalized Cmax in humanized NOD.Cg-Prkdcscid Il2rgtm1Wjl/SzJ mouse infected with Plasmodium falciparum Pf3D70087/N9 at 5 mg/kg, po administered as single dose after 0.25 to 23 hrs by LC-MS/MS analysis; type: ADME, organism-based; conditions: in vivo
[7] = Drug metabolism in rat liver microsomes assessed as deaminated morpholine metabolite formation at 5 uM after 60 mins by UPLC-MS analysis; type: ADME, microsome; conditions: 1 h
[8] = Drug metabolism in human liver microsomes assessed as cleaved morpholine ring metabolite formation at 5 uM after 60 mins by UPLC-MS analysis; type: ADME, microsome; conditions: 1 h
Mus musculus [9] = assay: Dose normalized Cmax in humanized NOD.Cg-Prkdcscid Il2rgtm1Wjl/SzJ mouse infected with Plasmodium falciparum Pf3D70087/N9 at 15 mg/kg, po administered as single dose after 0.25 to 23 hrs by LC-MS/MS analysis; type: ADME, organism-based; conditions: in vivo
[10] = AUC (0 to t) in humanized NOD.Cg-Prkdcscid Il2rgtm1Wjl/SzJ mouse infected with Plasmodium falciparum Pf3D70087/N9 at 5 mg/kg, po administered as single dose by LC-MS/MS analysis; type: ADME, organism-based; conditions: in vivo
[11] = Drug metabolism in rat liver microsomes at 5 uM after 60 mins by UPLC-MS analysis; type: ADME, microsome; conditions: read-out: Drug metabolism
[12] = Plasma concentration in Plasmodium berghei infected mouse at 30 mg/kg, po administered as single dose after 24 hrs; type: ADME, organism-based
[13] = Drug metabolism in mouse liver microsomes assessed as open morpholine ring metabolite formation at 5 uM after 60 mins by UPLC-MS analysis; type: ADME, microsome; conditions: 1 h
[14] = Drug metabolism in mouse liver microsomes assessed as cleaved morpholine ring metabolite formation at 5 uM after 60 mins by UPLC-MS analysis; type: ADME, microsome; conditions: 1 h
[15] = Drug degradation in human liver microsomes assessed as compound half life at 5 uM by UPLC-MS method; type: ADME, microsome
[16] = Drug degradation in mouse liver microsomes assessed as compound half life at 5 uM by UPLC-MS method; type: ADME, microsome
[17] = Drug metabolism in mouse liver microsomes assessed as metabolite M+32 (V) formation at 5 uM after 60 mins by UPLC-MS analysis; type: ADME, microsome; conditions: 1 h
[18] = Half life in Sprague-Dawley rat at 10 mg/kg, po; type: ADME, organism-based; conditions: in vivo
[19] = Drug metabolism in human liver microsomes assessed as deaminated morpholine metabolite formation at 5 uM after 60 mins by UPLC-MS analysis; type: ADME, microsome; conditions: 1 h
[20] = Drug metabolism in rat liver microsomes assessed as morpholine ring opened metabolite formation at 5 uM after 60 mins by UPLC-MS analysis; type: ADME, microsome; conditions: 1 h
Cytochrome P450 2C19 = Cytochrome P450 2C19 (Homo sapiens, UniProt P33261); assay: Inhibition of CYP2C19 in human liver microsomes assessed as (S)-mephenytoin 4'-hydroxylation after 4 to 40 mins in presence of NADPH by LCMS analysis; type: ADME
Chain of Cytochrome P450 2C19 (P33261 whole entry): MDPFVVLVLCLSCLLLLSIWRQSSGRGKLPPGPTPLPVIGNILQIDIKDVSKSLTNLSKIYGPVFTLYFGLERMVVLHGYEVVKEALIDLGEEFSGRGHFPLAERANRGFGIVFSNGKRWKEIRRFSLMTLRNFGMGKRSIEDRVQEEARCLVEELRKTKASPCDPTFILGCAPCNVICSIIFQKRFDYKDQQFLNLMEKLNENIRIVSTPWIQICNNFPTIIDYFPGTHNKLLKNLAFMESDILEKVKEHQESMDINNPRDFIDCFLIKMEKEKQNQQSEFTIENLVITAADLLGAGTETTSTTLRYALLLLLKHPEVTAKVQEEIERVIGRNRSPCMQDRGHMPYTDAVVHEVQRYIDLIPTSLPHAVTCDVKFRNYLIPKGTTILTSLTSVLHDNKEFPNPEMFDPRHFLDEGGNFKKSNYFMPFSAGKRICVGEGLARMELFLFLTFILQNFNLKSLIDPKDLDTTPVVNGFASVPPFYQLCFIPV

[21] = Drug metabolism in rat liver microsomes assessed as morpholine dealkylated metabolite formation at 5 uM after 60 mins by UPLC-MS analysis; type: ADME, microsome; conditions: 1 h
Mus musculus [22] = assay: Dose normalized AUC (0 to t) in humanized NOD.Cg-Prkdcscid Il2rgtm1Wjl/SzJ mouse infected with Plasmodium falciparum Pf3D70087/N9 at 15 mg/kg, po administered as single dose by LC-MS/MS analysis; type: ADME, organism-based; conditions: in vivo
[23] = Metabolic stability in rat blood after 2 to 4 hrs by LC-MS method; type: ADME, tissue-based
[24] = Cmax in humanized NOD.Cg-Prkdcscid Il2rgtm1Wjl/SzJ mouse infected with Plasmodium falciparum Pf3D70087/N9 at 15 mg/kg, po administered as single dose after 0.25 to 23 hrs by LC-MS/MS analysis; type: ADME, organism-based; parameters: dose 15 mg/kg, route oral; conditions: in vivo
[25] = Cmax in humanized NOD.Cg-Prkdcscid Il2rgtm1Wjl/SzJ mouse infected with Plasmodium falciparum Pf3D70087/N9 at 5 mg/kg, po administered as single dose after 0.25 to 23 hrs by LC-MS/MS analysis; type: ADME, organism-based; parameters: dose 5 mg/kg, route oral; conditions: in vivo
[26] = Tmax in humanized NOD.Cg-Prkdcscid Il2rgtm1Wjl/SzJ mouse infected with Plasmodium falciparum Pf3D70087/N9 at 5 mg/kg, po administered as single dose by LC-MS/MS analysis; type: ADME, organism-based; conditions: in vivo
[27] = Drug metabolism in rat liver microsomes assessed as cleaved morpholine ring metabolite formation at 5 uM after 60 mins by UPLC-MS analysis; type: ADME, microsome; conditions: 1 h
[28] = Drug metabolism in mouse liver microsomes assessed as bis-oxygenation and dehydrogenation metabolite formation at 5 uM after 60 mins by UPLC-MS analysis; type: ADME, microsome; conditions: 1 h

c1cc(C2CCC3(CC2)OOC2(OO3)C3CC4CC(C3)CC2C4)ccc1CN1CCOCC1 (configuration not stated)
Drug metabolism [1]: Metabolite_Detected
IC50 (Cytochrome P450 3A4): > 20 µM
Drug metabolism [2]: Metabolite_Notdetected
Drug metabolism [3]: Metabolite_Notdetected
IC50 (Cytochrome P450 1A2): > 20 µM
Drug metabolism [4]: Metabolite_Detected
IC50 (Plasmodium falciparum): 0.0013 µM
Drug metabolism [5]: Metabolite_Detected
Cmax/dose (Mus musculus [6]): 0.0218 µg/mL/mg/kg
Drug metabolism [7]: Metabolite_Notdetected
Drug metabolism [8]: Metabolite_Notdetected
Cmax/dose (Mus musculus [9]): 0.0099 µg/mL/mg/kg
AUC(0-t) [10]: 1280 ng·h/mL
metabolised at 1 h, 5 µM [11]: 82%
concentration at 24 h [12]: > 100 ng/mL
Drug metabolism [13]: Metabolite_Notdetected
Drug metabolism [14]: Metabolite_Notdetected
half-life at 5 µM [15]: 0.717 h
half-life at 5 µM [16]: 1.45 h
Drug metabolism [17]: Metabolite_Notdetected
half-life [18]: 17 h
Drug metabolism [19]: Metabolite_Notdetected
Drug metabolism [20]: Metabolite_Notdetected
IC50 (Cytochrome P450 2C19): > 20 µM
Drug metabolism [21]: Metabolite_Notdetected
AUCt/dose (Mus musculus [22]): 0.0499 µg·h/mL/mg/kg
Stability [23]: Stable
Cmax [24]: 148 ng/mL
Cmax [25]: 109 ng/mL
Tmax [26]: 1 h
Drug metabolism [27]: Metabolite_Notdetected
Drug metabolism [28]: Metabolite_Notdetected
